Results on 26 molecules are retold here after patent US6569878B1, “Substituted 4-amino-thiazol-2-yl compounds as cyclin-dependent kinase inhibitors” (Agouron Pharmaceuticals Inc., priority 1997, dated 2003).

Like-named read-outs stand apart in the source and are kept apart here.

Test [1] has as its target T1, complex of human CDK4 and cyclin D3 (Homo sapiens, UniProt P11802).
T1 construct: made in house; host or cells: insect cells, co-infected with baculovirus
The test is described as follows: Inhibition of CDK4/cyclin D retinoblastoma kinase activity (D-type cyclin is D3). Type of test: biochemical. The note with it: superscript a: D-type cyclin is D3; apparent Ki; read-out: Ki CDK 4/D. As to the method:
Cyclin-dependent kinase activity was measured by quantifying the enzyme-catalyzed, time-dependent incorporation of radioactive phosphate from [^32P]ATP or [^33P]ATP into a protein substrate. […] Reactions were initiated with enzyme, incubated at 30° C., and terminated after 20 minutes by the addition of ethylenediaminetetraacetic acid (EDTA) to 250 mM. […] Radioactivity was quantified by exposing the dried membranes to a phosphorimager.
(§1) Apparent Ki values were measured by assaying enzyme activity in the presence of different inhibitor compound concentrations and subtracting the background radioactivity measured in the absence of enzyme. The kinetic parameters (kcat, Km for ATP) were measured for each enzyme under the usual assay conditions by determining the dependence of initial rates on ATP concentration. Inhibition data were fit to an equation for competitive inhibition using Kaleidagraph (Synergy Software), or were fit to an equation for competitive tight-binding inhibition using the software KineTic (BioKin, Ltd.).
Phosphorylated Rb substrate was captured by microfiltration on a nitrocellulose membrane and quantified using a phosphorimager as described above. For measurement of tight-binding inhibitors, the enzyme complex concentration was lowered to 5 nM, and the assay duration was extended to 60 minutes, during which the time-dependence of product formation was linear.

The target of the next test is T2, CDK2/cyclin A (Homo sapiens, UniProt P24941).
T2 construct: made in house; host or cells: CDK2: insect cells (baculovirus); cyclin A: E. coli, then limited proteolysis
Nature of the test: Inhibition of CDK2/cyclin A retinoblastoma kinase activity. Type of test: biochemical. The settings on record: read-out: Ki CDK 2/A. As to the method:
Cyclin-dependent kinase activity was measured by quantifying the enzyme-catalyzed, time-dependent incorporation of radioactive phosphate from [^32P]ATP or [^33P]ATP into a protein substrate. Unless noted otherwise, assays were performed in 96-well plates in a total volume of 50 μL, in the presence of 10 mM HEPES (N-[2-hydroxyethyl]piperazine-N′-[2-ethanesulfonic acid]) (pH 7.4), 10 mM MgCl2, 25 μM adenosine triphosphate (ATP), 1 mg/mL ovalbumin, 5 μg/mL leupeptin, 1 mM dithiothreitol, 10 mM β-glycerophosphate, 0.1 mM sodium vanadate, 1 mM sodium fluoride, 2.5 mM ethylene glycol-bis(β-aminoethyl ether)-N,N,N′N′-tetraacetic acid (EGTA), 2% (v/v) dimethylsulfoxide, and 0.03-0.4 μCi [^32/33P]ATP per reaction. Reactions were initiated with enzyme, incubated at 30° C., and terminated after 20 minutes by the addition of ethylenediaminetetraacetic acid (EDTA) to 250 mM. The phosphorylated substrate was then captured on a nitrocellulose or phosphocellulose membrane using a 96-well filtration manifold, and unincorporated radioactivity was removed by repeated washing with 0.85% phosphoric acid. Radioactivity was quantified by exposing the dried membranes to a phosphorimager.
as §1
CDK2 was purified using published methodology (Rosenblatt et al., “Purification and Crystallization of Human Cyclin-dependent Kinase 2,” J. Mol. Biol., vol. 230, 1993, pp. 1317-1319) from insect cells that had been infected with a baculovirus expression vector. […] Purified, proteolyzed cyclin A was included in the assay at a three- to five-fold molar excess to CDK2. Alternatively, a complex of CDK2 and proteolyzed cyclin A was prepared and purified by gel filtration. The substrate for this assay was the same Rb substrate fragment used for the CDK4 assays, and the methodology of the CDK2/cyclin A and the CDK4/cyclin D3 assays was essentially the same, except that CDK2 was present at 150 nM or 5 nM. Ki values were measured as described above.

T1 sequence (P11802 whole entry): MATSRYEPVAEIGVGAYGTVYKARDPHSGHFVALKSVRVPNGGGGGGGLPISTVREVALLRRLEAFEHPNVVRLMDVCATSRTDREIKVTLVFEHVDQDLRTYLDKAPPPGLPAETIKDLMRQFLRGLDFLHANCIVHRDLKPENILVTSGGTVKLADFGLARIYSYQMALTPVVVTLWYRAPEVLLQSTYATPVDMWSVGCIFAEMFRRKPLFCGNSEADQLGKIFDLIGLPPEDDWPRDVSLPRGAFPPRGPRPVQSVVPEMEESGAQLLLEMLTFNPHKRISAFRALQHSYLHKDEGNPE
T1 sequence (P30281 whole entry partner): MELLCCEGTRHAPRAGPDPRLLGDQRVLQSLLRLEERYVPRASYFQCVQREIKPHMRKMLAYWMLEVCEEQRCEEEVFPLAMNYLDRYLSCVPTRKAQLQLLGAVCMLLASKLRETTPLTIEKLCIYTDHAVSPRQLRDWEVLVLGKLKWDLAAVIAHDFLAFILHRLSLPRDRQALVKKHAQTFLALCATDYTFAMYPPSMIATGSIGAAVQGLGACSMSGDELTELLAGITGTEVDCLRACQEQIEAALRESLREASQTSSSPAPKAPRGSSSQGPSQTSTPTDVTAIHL

As to `CCOC(=O)CC(C)Nc1nc(N)c(C(=O)c2sccc2C)s1` (racemic) [C(46), Ethyl 3RS-[4-Amino-5-(3-methyl-thiophene-2-carbonyl)-thiazol-2-ylamino]-butyrate], the results for the Ki (in test [1]; at CDK2/cyclin A) were 244 nM and 1.79 µM, respectively.

Consider `COC(=O)c1sc(Nc2ccc3nc[nH]c3c2)nc1N` [A(12), 4-Amino-2-(1H-benzoimidazol-6-ylamino)-thiazole-5-carboxylic Acid Methyl Ester], for which the figures for the Ki (in test [1]; on CDK2/cyclin A) were 9400 nM and 4.1 µM, respectively.

Take `COc1ccc(C(=O)c2sc(Nc3ccc(N(C)C)cc3)nc2N)cc1` [C(3), [4-Amino-2-(4-dimethylamino-phenylamino)-thiazol-5-yl]-(4-methoxy-phenyl)-methanone]: the Ki was 1200 nM in test [1] and 4.7 µM at CDK2/cyclin A.

As to `COc1ccc(C(=O)c2sc(Nc3ccc(S(N)(=O)=O)cc3)nc2N)c(OC)c1` [C(33), 4-[4-Amino-5-(2,4-dimethoxy-benzoyl)-thiazol-2-ylamino]-benzenesulfonamide], the Ki in test [1] was found to be 57 nM; at CDK2/cyclin A, 0.02 µM.

As to `CCOC(=O)c1ccc(C(=O)c2sc(Nc3ccc(S(N)(=O)=O)cc3)nc2N)cc1` [C(34), Ethyl 4-[4-Amino-2-(4-sulfamoyl-phenylamino)-thiazole-5-carbonyl]-benzoate], the values for the Ki (in test [1]; on CDK2/cyclin A) were 140 nM and 0.131 µM, respectively.

For the molecule `Cc1ccc(C(=O)c2sc(Nc3ccc(-n4ccnc4)cc3)nc2N)c(C)c1` [C(41), [4-Amino-2-(4-imidazol-1-yl-phenylamino)-thiazol-5-yl]-(2,4-dimethyl-phenyl)-methanone], the Ki is 350 nM in test [1] and 0.336 µM on CDK2/cyclin A.

For `Cc1ccsc1C(=O)c1sc(Nc2ccc(-n3ccnc3)cc2)nc1N` [C(42), [4-Amino-2-(4-imidazol-1-yl-phenylamino)-thiazol-5-yl]-(3-methyl-thiophen-2-yl)-methanone], the Ki in test [1] worked out at 750 nM; on CDK2/cyclin A it was 0.207 µM.

For `Nc1nc(Nc2ccc(S(N)(=O)=O)cc2)sc1C(=O)c1ccc2c(c1)CCC(=O)N2` [C(51), 4-[4-Amino-5-(2-oxo-1,2,3,4-tetrahydro-quinoline-6-carbonyl)-thiazol-2-ylamino]-benzenesulfonamide], the figures for the Ki (in test [1]; at CDK2/cyclin A) were 85 nM and 0.0333 µM, respectively.

Regarding `Nc1nc(Nc2ccc(-c3ncc[nH]3)cc2)sc1C(=O)c1c(Cl)cc(C(F)(F)F)cc1Cl` [C(53), {4-Amino-2-[4-(1H-imidazol-2-yl)-phenylamino]-thiazol-5-yl}-(2,6-dichloro-4-trifluoromethyl-phenyl)-methanone], the Ki in test [1] was 85 nM; on CDK2/cyclin A it was 0.18 µM.

With `Cc1ccc(C(=O)c2sc(Nc3ccc(N4CCOCC4)cc3)nc2N)c(C)c1` [C(54), [4-Amino-2-(4-morpholin-4-yl-phenylamino)-thiazol-5-yl]-(2,4-dimethyl-phenyl)-methanone], the Ki in test [1] stood at 34 nM; at CDK2/cyclin A, 0.453 µM.

Consider `CCOC(=O)c1ccc(Nc2nc(N)c(C(=O)c3c(Cl)cccc3Cl)s2)cc1` [C(56), Ethyl 4-[4-Amino-5-(2,6-dichloro-benzoyl)-thiazol-2-ylamino]-benzoate], for which the Ki in test [1] amounted to 195 nM; on CDK2/cyclin A it was 1.02 µM.

As to `Cc1cc(C)c(C(=O)c2sc(Nc3ccc4nc[nH]c4c3)nc2N)c(C)c1` [C(57), [4-Amino-2-(1H-benzoimidazol-6-ylamino)-thiazol-5-yl]-(2,4,6-trimethyl-phenyl)-methanone], the Ki was determined as 30 nM in test [1] and 0.259 µM at CDK2/cyclin A.

For `Cc1ccc(C)c(C(=O)c2sc(Nc3ccc4nc[nH]c4c3)nc2N)c1C` [C(58), [4-Amino-2-(1H-benzoimidazol-6-ylamino)-thiazol-5-yl]-(2,3,6-trimethyl-phenyl)-methanone], the Ki in test [1] worked out at 34 nM; on CDK2/cyclin A, 0.306 µM.

`Cc1cncc(C)c1C(=O)c1sc(Nc2ccc(S(N)(=O)=O)cc2)nc1N` [C(59), [4-Amino-2-(4-sulfamoyl-phenylamino)-thiazol-5-yl]-(3,5-dimethyl-pyridin-4-yl)-methanone]: the Ki was 100 nM in test [1] and 0.135 µM at CDK2/cyclin A.

As for `Cc1cccc(C)c1C(=O)c1sc(Nc2ccc3nc[nH]c3c2)nc1N` [C(60), [4-Amino-2-(1H-benzoimidazol-6-ylamino)-thiazol-5-yl]-(2,6-dimethyl-phenyl)-methanone], the Ki in test [1] worked out at 56 nM; at CDK2/cyclin A, 0.574 µM.

Take `Cc1cccc([N+](=O)[O-])c1C(=O)c1sc(Nc2ccc3nc[nH]c3c2)nc1N` [C(61), [4-Amino-2-(1H-benzoimidazol-6-ylamino)-thiazol-5-yl]-(2-methyl-6-nitro-phenyl)-methanone]: the Ki in test [1] turned out to be 120 nM; on CDK2/cyclin A, 1.2 µM.

Regarding `Cc1cccc(C)c1C(=O)c1sc(Nc2ccc(N3CCOCC3)cc2)nc1N` [C(62), [4-Amino-2-(4-morpholin-4-yl-phenylamino)-thiazol-5-yl]-(2,6-dimethyl-phenyl)-methanone], the Ki came to 72 nM in test [1] and 1.71 µM at CDK2/cyclin A.

Turning to `Nc1nc(Nc2ccc3nc[nH]c3c2)sc1C(=O)[C@@H]1CCCN1C(=O)OCc1ccccc1` [C(64), 2S-[4-Amino-2-(1H-benzoimidazol-5-yl-amino)-thiazole-5-carbonyl]-N-carbobenzyloxy-pyrrolidine], the Ki stood at 44000 nM in test [1] and 42 µM on CDK2/cyclin A (μM).

Turning to `Nc1nc(Nc2ccc(S(N)(=O)=O)cc2)sc1C(=O)[C@@H]1CCCN1C(=O)OCc1ccccc1` [C(65), 2S-[4-Amino-2-(4-sulfamoyl-phenylamino)-thiazole-5-carbonyl]-N-carbobenzyloxy-pyrrolidine], the Ki in test [1] came out at 38000 nM; at CDK2/cyclin A (μM), 14.3 µM.

Consider `Cc1cccc(Br)c1C(=O)c1sc(Nc2ccc3nc[nH]c3c2)nc1N` [C(66), [4-Amino-2-(1H-benzoimidazol-6-ylamino)-thiazol-5-yl]-(2-bromo-6-methyl-phenyl)-methanone], for which the Ki worked out at 53 nM in test [1] and 0.574 µM at CDK2/cyclin A.

Regarding `Cc1cccc(-c2ccccc2)c1C(=O)c1sc(Nc2ccc3nc[nH]c3c2)nc1N` [C(67), [4-Amino-2-(1H-benzoimidazol-6-ylamino)-thiazol-5-yl]-(3-methyl-biphenyl-2-yl)-methanone], the Ki was determined as 3170 nM in test [1] and 13.2 µM at CDK2/cyclin A (μM).

On to `Nc1nc(Nc2ccc3nc[nH]c3c2)sc1C(=O)c1sc(Br)cc1Br` [C(72), [4-Amino-2-(1H-benzoimidazol-6-ylamino)-thiazol-5-yl]-(3,5-dibromo-thiophen-2-yl)-methanone], for which the Ki in test [1] stood at 13.5 nM; at CDK2/cyclin A it was 0.169 µM.

For the molecule `Cc1c(C(=O)c2sc(Nc3ccc4nc[nH]c4c3)nc2N)ncn1C` [C(74), [4-Amino-2-(1H-benzoimidazol-6-ylamino)-thiazol2-5-yl]-(1,5-dimethyl-1H-imidazol-4-yl)-methanone], the Ki in test [1] was 4800 nM; on CDK2/cyclin A (μM), 10.6 µM.

Take `Nc1nc(Nc2ccc(N3CCOCC3)cc2)sc1C(=O)c1c(Cl)ccc([N+](=O)[O-])c1Cl` [C(75), [4-Amino-2-(4-morpholin-4-yl-phenylamino)-thiazol-5-yl]-(2,6-dichloro-3-nitro-phenyl)-methanone]: the Ki in test [1] worked out at 23 nM; on CDK2/cyclin A it was 1.08 µM.

As to `Cc1c(C(=O)c2sc(Nc3ccc(S(N)(=O)=O)cc3)nc2N)ncn1C` [C(76), 4-[4-Amino-5-(1,5-dimethyl-1H-imidazole-4-carbonyl)-thiazol-2-ylamino]-benzenesulfonamide], the Ki came out at 2000 nM in test [1] and 0.507 µM at CDK2/cyclin A.

As for `Cc1cc([N+](=O)[O-])sc1C(=O)c1sc(Nc2ccc3nc[nH]c3c2)nc1N` [C(78), [4-Amino-2-(1H-benzoimidazol-6-ylamino)-thiazol-5-yl]-(3-methyl-5-nitro-thiophen-2-yl)-methanone], the figures for the Ki (in test [1]; at CDK2/cyclin A) were 32 nM and 0.083 µM, respectively.
